Test results from patent US6737383B1, “Herbicidal oxadiazolidines” (priority 1999, dated 2004).

Key:
[1] = tested on: winter wheat; test: Test E winter wheat; format: in vivo, Triticum aestivum; conditions: Preemergence
[2] = tested on: Italian ryegrass; test: Test E Italian ryegrass; format: in vivo, Lolium multiflorum; conditions: Preemergence
[3] = tested on: velvetleaf; test: Test B pre/postemergence velvetleaf; format: in vivo, Abutilon theophrasti; conditions: for Velvetleaf plant response rating (0 to 10 scale): 0 is no effect
Procedure, shortened: (§1)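 Response is a visual 0-to-10 score relative to untreated plants, where 0 means no effect and 10 means complete control, taken twelve to sixteen days after application. Treatments went onto soil at planting and onto foliage of 1- to 4-leaf plants, using a surfactant-containing non-phytotoxic solvent.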

[4] = tested on: morningglory; test: Test B pre/postemergence morningglory; format: in vivo, Ipomoea hederacea; conditions: for Morningglory plant response rating (0 to 10 scale): 0 is no effect
Procedure, shortened: as §1

[5] = tested on: wild oat; test: Test B pre/postemergence wild oat; format: in vivo, Avena fatua; conditions: for Wild oats plant response rating (0 to 10 scale): 0 is no effect
Procedure, shortened: as §1

[6] = tested on: blackgrass; test: Test E blackgrass; format: in vivo, Alopecurus myosuroides; conditions: Preemergence
[7] = tested on: winter wheat; test: Test E winter wheat; format: in vivo, Triticum aestivum; conditions: Postemergence
Procedure, shortened: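 Greenhouse test: for postemergence, foliar application at 1- to 4-leaf stage; compound in non-phytotoxic solvent with surfactant. Rating is visual, relative to untreated controls, about 21 to 28 days after treatment.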

[8] = tested on: wild oat; test: Test E wild oat; format: in vivo, Avena fatua; conditions: Preemergence; for Plant response rating, Wild oat: 0 to 100 scale where 0 is no effect and 100 is complete control
[9] = tested on: winter barley; test: Test E winter barley; format: in vivo, Hordeum vulgare; conditions: Preemergence
[10] = tested on: green foxtail; test: Test E green foxtail; format: in vivo, Setaria viridis; conditions: Preemergence
[11] = tested on: bedstraw; test: Test B pre/postemergence bedstraw; format: in vivo, Galium aparine; conditions: for Bedstraw plant response rating (0 to 10 scale): 0 is no effect
Procedure, shortened: as §1

[12] = Rate 500 g/ha, 0 to 100 scale where 0 is no effect and 100 is complete control
[13] = Rate 1000 g/ha, 0 to 100 scale where 0 is no effect and 100 is complete control
[14] = Postemergence, Rate 62 g/ha, scale 0 to 10, 0 is no effect, 10 is complete control
[15] = Postemergence, Rate 250 g/ha, scale 0 to 10, 0 no effect, 10 complete control
[16] = Preemergence, Rate 62 g/ha, scale 0 to 10 (0 no effect, 10 complete control)
[17] = Preemergence, Rate 125 g/ha, scale 0 to 10 (0 no effect, 10 complete control)
[18] = Preemergence, Rate 250 g/ha, scale of 0 to 10 where 0 is no effect and 10 is complete control
[19] = Preemergence, Rate 500 g/ha, scale 0 (no effect) to 10 (complete control)
[20] = Rate 125 g/ha, Postemergence, scale 0 to 10, 0 no effect, 10 complete control
[21] = Rate 500 g/ha, Postemergence, scale 0 to 10, 0 no effect, 10 complete control
[22] = Rate 250 g/ha, 0 to 100 scale (0 no effect, 100 complete control)
[23] = Rate 1000 g/ha, 0 to 100 scale, 0 is no effect and 100 is complete control
[24] = Rate 500 g/ha, 0 to 100 scale, 0 no effect, 100 complete control
[25] = Postemergence, Rate 125 g/ha, scale of 0 to 10 where 0 is no effect and 10 is complete control
[26] = Preemergence, Rate 125 g/ha, 10 is complete control
[27] = Preemergence, Rate 250 g/ha, scale 0 to 10, 0 is no effect, 10 is complete control
[28] = Preemergence, Rate 500 g/ha, scale 0 to 10 (0 no effect, 10 complete control)
[29] = Rate 62 g/ha, Postemergence, scale of 0 to 10 where 0 is no effect and 10 is complete control
[30] = Rate 250 g/ha, Postemergence, scale 0 to 10, 0 is no effect, 10 is complete control
[31] = Rate 500 g/ha, Postemergence, scale 0 to 10

SMILES: CC(C)N(C(=O)n1oc(=O)n(Cc2cccs2)c1=O)c1ccc(F)cc1F [Compound 86]
- Plant response rating, Wheat (winter) ([1]; Rate 250 g/ha, 0 to 100 scale): 60
- Plant response rating, Wheat (winter) [1, 12]: 40
- Plant response rating, Wheat (winter) [1, 13]: 65
- Plant response rating, I. Ryegrass ([2]; Rate 250 g/ha, 0 to 100 scale): 30
- Plant response rating, I. Ryegrass [2, 12]: 50
- Plant response rating, I. Ryegrass [2, 13]: 60
- Velvetleaf plant response rating [3, 14]: 0
- Velvetleaf plant response rating [3, 15]: 0
- Velvetleaf plant response rating [3, 16]: 0
- Plant response rating, Velvetleaf [3, 17]: 0
- Plant response rating, Velvetleaf [3, 18]: 3
- Velvetleaf plant response rating [3, 19]: 5
- Velvetleaf plant response rating [3, 20]: 0
- Velvetleaf plant response rating [3, 21]: 2
- Morningglory plant response rating [4, 14]: 4
- Morningglory plant response rating [4, 15]: 7
- Morningglory plant response rating [4, 16]: 0
- Plant response rating, Morningglory [4, 17]: 0
- Plant response rating, Morningglory [4, 18]: 0
- Morningglory plant response rating [4, 19]: 0
- Morningglory plant response rating [4, 20]: 7
- Morningglory plant response rating [4, 21]: 8
- Wild oats plant response rating [5, 14]: 0
- Wild oats plant response rating [5, 15]: 0
- Wild oats plant response rating [5, 16]: 0
- Plant response rating, Wild oats [5, 17]: 0
- Plant response rating, Wild oats [5, 18]: 4
- Wild oats plant response rating [5, 19]: 5
- Wild oats plant response rating [5, 20]: 0
- Wild oats plant response rating [5, 21]: 0
- Plant response rating, Blackgrass ([6]; Rate 250 g/ha, 0 to 100 scale): 60
- Plant response rating, Blackgrass [6, 12]: 55
- Plant response rating, Blackgrass [6, 13]: 65
- Plant response rating, Wheat (winter) [7, 22]: 55
- Plant response rating, Wheat (winter) [7, 23]: 60
- Plant response rating, Wheat (winter) [7, 24]: 70
- Plant response rating, Wild oat ([8]; Rate 500 g/ha): 60
- Plant response rating, Wild oat ([8]; Rate 1000 g/ha): 70
- Plant response rating, Barley (winter) ([9]; Rate 250 g/ha, 0 to 100 scale): 70
- Plant response rating, Barley (winter) [9, 12]: 80
- Plant response rating, Barley (winter) [9, 13]: 70
- Plant response rating, Green foxtail ([10]; Rate 250 g/ha, 0 to 100 scale): 40
- Plant response rating, Green foxtail [10, 12]: 55
- Plant response rating, Green foxtail [10, 13]: 100
- Bedstraw plant response rating [11, 14]: 2
- Bedstraw plant response rating [11, 15]: 6
- Bedstraw plant response rating [11, 16]: 0
- Plant response rating, Bedstraw [11, 17]: 0
- Plant response rating, Bedstraw [11, 18]: 0
- Bedstraw plant response rating [11, 19]: 0
- Bedstraw plant response rating [11, 20]: 4
- Bedstraw plant response rating [11, 21]: 8

SMILES: CC(C)N(C(=O)n1oc(=O)n(-c2cnn(C)c2)c1=O)c1ccccc1 [Compound 123]
- Plant response rating, Wheat (winter) ([1]; Rate 250 g/ha, 0 to 100 scale): 10
- Plant response rating, Wheat (winter) [1, 13]: 20
- Plant response rating, I. Ryegrass ([2]; Rate 250 g/ha, 0 to 100 scale): 40
- Plant response rating, I. Ryegrass [2, 13]: 50
- Velvetleaf plant response rating [3, 25]: 0
- Velvetleaf plant response rating [3, 16]: 0
- Velvetleaf plant response rating (0 to 10 scale) [3, 26]: 0
- Velvetleaf plant response rating [3, 27]: 3
- Velvetleaf plant response rating [3, 28]: 6
- Velvetleaf plant response rating [3, 29]: 0
- Plant response rating, Velvetleaf [3, 30]: 0
- Morningglory plant response rating [4, 25]: 9
- Morningglory plant response rating [4, 16]: 0
- Morningglory plant response rating (0 to 10 scale) [4, 26]: 0
- Morningglory plant response rating [4, 27]: 0
- Morningglory plant response rating [4, 28]: 0
- Morningglory plant response rating [4, 29]: 8
- Plant response rating, Morningglory [4, 30]: 10
- Morningglory plant response rating [4, 21]: 10
- Wild oats plant response rating [5, 25]: 0
- Wild oats plant response rating [5, 16]: 0
- Wild oats plant response rating (0 to 10 scale) [5, 26]: 2
- Wild oats plant response rating [5, 27]: 6
- Wild oats plant response rating [5, 28]: 6
- Wild oats plant response rating [5, 29]: 0
- Plant response rating, Wild oats [5, 30]: 0
- Wild oats plant response rating [5, 21]: 2
- Plant response rating, Blackgrass ([6]; Rate 250 g/ha, 0 to 100 scale): 30
- Plant response rating, Blackgrass [6, 13]: 65
- Plant response rating, Wheat (winter) [7, 22]: 55
- Plant response rating, Wheat (winter) [7, 23]: 65
- Plant response rating, Wild oat ([8]; Rate 1000 g/ha): 55
- Plant response rating, Barley (winter) ([9]; Rate 250 g/ha, 0 to 100 scale): 30
- Plant response rating, Barley (winter) [9, 13]: 50
- Plant response rating, Green foxtail ([10]; Rate 250 g/ha, 0 to 100 scale): 20
- Plant response rating, Green foxtail [10, 13]: 40
- Bedstraw plant response rating [11, 16]: 0
- Bedstraw plant response rating (0 to 10 scale) [11, 26]: 0
- Bedstraw plant response rating [11, 27]: 0
- Bedstraw plant response rating [11, 28]: 0

SMILES: Cc1nsc(C)c1-n1c(=O)on(C(=O)N(c2ccc(F)cc2)C(C)C)c1=O [Compound 157]
- Wheat (winter) plant response rating (0 to 100 scale) ([1]; Rate 250 g/ha): 20
- Plant response rating, Wheat (winter) [1, 12]: 30
- Plant response rating, Wheat (winter) [1, 13]: 40
- I. Ryegrass plant response rating (0 to 100 scale) ([2]; Rate 250 g/ha): 20
- Plant response rating, I. Ryegrass [2, 12]: 30
- Plant response rating, I. Ryegrass [2, 13]: 50
- Velvetleaf plant response rating [3, 16]: 0
- Velvetleaf plant response rating (0 to 10 scale) [3, 26]: 0
- Velvetleaf plant response rating [3, 27]: 0
- Velvetleaf plant response rating [3, 28]: 0
- Plant response rating, Velvetleaf [3, 30]: 0
- Velvetleaf plant response rating [3, 31]: 0
- Morningglory plant response rating [4, 25]: 1
- Morningglory plant response rating [4, 16]: 0
- Morningglory plant response rating (0 to 10 scale) [4, 26]: 0
- Morningglory plant response rating [4, 27]: 0
- Morningglory plant response rating [4, 28]: 3
- Morningglory plant response rating [4, 29]: 0
- Plant response rating, Morningglory [4, 30]: 1
- Morningglory plant response rating [4, 31]: 1
- Wild oats plant response rating [5, 16]: 0
- Wild oats plant response rating (0 to 10 scale) [5, 26]: 0
- Wild oats plant response rating [5, 27]: 0
- Wild oats plant response rating [5, 28]: 0
- Plant response rating, Wild oats [5, 30]: 0
- Wild oats plant response rating [5, 31]: 0
- Blackgrass plant response rating (0 to 100 scale) ([6]; Rate 250 g/ha): 20
- Plant response rating, Blackgrass [6, 12]: 40
- Plant response rating, Blackgrass [6, 13]: 50
- Plant response rating, Wheat (winter) [7, 23]: 40
- Plant response rating, Wheat (winter) [7, 24]: 30
- Wheat (winter) plant response rating ([7]; Rate 250 g/ha, 0 to 100 scale where 0 is no effect and 100 is complete control): 20
- Wild oat plant response rating (0 to 100 scale) ([8]; Rate 250 g/ha): 50
- Plant response rating, Wild oat ([8]; Rate 500 g/ha): 30
- Plant response rating, Wild oat ([8]; Rate 1000 g/ha): 50
- Barley (winter) plant response rating (0 to 100 scale) ([9]; Rate 250 g/ha): 0
- Plant response rating, Barley (winter) [9, 12]: 10
- Plant response rating, Barley (winter) [9, 13]: 30
- Green foxtail plant response rating (0 to 100 scale) ([10]; Rate 250 g/ha): 30
- Plant response rating, Green foxtail [10, 12]: 40
- Plant response rating, Green foxtail [10, 13]: 50
- Bedstraw plant response rating [11, 25]: 0
- Bedstraw plant response rating [11, 16]: 0
- Bedstraw plant response rating (0 to 10 scale) [11, 26]: 0
- Bedstraw plant response rating [11, 27]: 0
- Bedstraw plant response rating [11, 28]: 0
- Bedstraw plant response rating [11, 29]: 0
- Plant response rating, Bedstraw [11, 30]: 0
